System: NQO1 specific enzyme activity in BEAS-2B cells (marker for NRF2 activation)
Assay: BEAS-2B NQO1 MTT Assay
Assay type: cell-based
Conditions: NQO1 specific activity induction, 48 hours with compound
Description: NAD(P)H:quinone oxidoreductase 1 (NQO1), also called DT diaphorase, is a homodimeric FAD-containing enzyme that catalyzes obligatory NAD(P)H-dependent two-electron reductions of quinones and protects cells against the toxic and neoplastic effects of free radicals and reactive oxygen species arising from one-electron reductions. The transcription of NQO1 is finely regulated by NRF2, and thus NQO1 activity is a good marker for NRF2 activation. On day one, frozen BEAS-2B cells (ATCC) were thawed in a water bath, counted, and re-suspended at a concentration of 250,000 cells/mL. Fifty microliters of cells were plated in 384 well black clear-bottomed plates. Plates were incubated at 37° C., 5% CO2 overnight. On day two, plates were centrifuged and 50 nL of compound or controls were added to the cells. Plates were then incubated at 37° C., 5% CO2 for 48 hours. On day four, medium was aspirated from the plate and crude cell lysates were made by adding 13 uL of 1× Cell Signaling Technologies lysis buffer with 1 Complete, Mini, EDTA-free Protease Inhibitor Tablet (Roche) for each 10 mL of lysis buffer. After lysis plates were incubated for 20 minutes at room temperature. Two microliters of lysate were removed for use in Cell Titer Glo assay (Promega) and MTT cocktail was prepared (Prochaska et. al. 1998) for measurement of NQO1 activity. Fifty microliters of MTT cocktail is added to each well, plate is centrifuged, and analyzed on an Envision plate reader (Perkin Elmer) using Absorbance 570 nm label for 30 minutes. Product formation was measured kinetically and the pEC50 of NQO1 specific activity induction was calculated by plotting the change in absorbance (Delta OD/min) versus the log of compound concentration followed by 3-parameter fitting.
pEC50 is the negative log of the EC50.
EC50s<1 nM (+++++), EC50s 1 nM-10 nM (++++), EC50s 10 nM-100 nM (+++), EC50s 100 nM-1 uM (++), EC50s 1 uM-10 uM (+), EC50s>10 uM (−), or were not determined (ND).

SMILES: CC[C@@H]1CN(Cc2cc([C@@H](c3ccc4c(nnn4CC)c3C)C(C)(C)C(=O)O)sc2Cl)S(=O)(=O)c2cnccc2O1 [Example 56, (S)-3-(5-Chloro-4-(((R)-4-ethyl-1,1-dioxido-3,4-dihydro-2H-pyrido[4,3-b][1,4,5]oxathiazepin-2-yl)methyl)thiophen-2-yl)-3-(1-ethyl-4-methyl-1H-benzo[d][1,2,3]triazol-5-yl)-2,2-dimethylpropanoic Acid]
- EC50 (Homo sapiens, BEAS-2B, 48 h): < 1 nM

SMILES: CCn1nnc2c(C)c([C@@H](c3cc(CN4C[C@@H](C)Cc5ccc(C(F)(F)F)cc5S4(=O)=O)n(C)n3)C(C)(C)C(=O)O)ccc21 [Example 37, (R)-3-(1-Ethyl-4-methyl-1H-benzo[d][1,2,3]triazol-5-yl)-2,2-dimethyl-3-(1-methyl-5-(((S)-4-methyl-1,1-dioxido-8-(trifluoromethyl)-4,5-dihydrobenzo[f][1,2]thiazepin-2(3H)-yl)methyl)-1H-pyrazol-3-yl)propanoic Acid]
- EC50 (Homo sapiens, BEAS-2B, 48 h): 100 to 1000 nM

SMILES: CC[C@@H]1CN(Cc2cc([C@H](CCc3cn(CC)nn3)C(C)(C)C(=O)O)sc2C)S(=O)(=O)c2cccnc2O1 [Example 58, (R)-3-(4-(((R)-4-Ethyl-1,1-dioxido-3,4-dihydro-2H-pyrido[2,3-b][1,4,5]oxathiazepin-2-yl)methyl)-5-methylthiophen-2-yl)-5-(1-ethyl-1H-1,2,3-triazol-4-yl)-2,2-dimethylpentanoic Acid]
- EC50 (Homo sapiens, BEAS-2B, 48 h): 1 to 10 nM

SMILES: CCn1nnc2c(C)c([C@H](c3nc(CN4C[C@@H](C)Cc5cc(C(F)(F)F)ccc5S4(=O)=O)c(C)s3)C(C)(C)C(=O)Nc3cccnc3)ccc21 [Example 45, (S)-3-(1-Ethyl-4-methyl-1H-benzo[d][1,2,3]triazol-5-yl)-2,2-dimethyl-3-(5-methyl-4-(((S)-4-methyl-1,1-dioxido-7-(trifluoromethyl)-4,5-dihydrobenzo[f][1,2]thiazepin-2(3H)-yl)methyl)thiazol-2-yl)-N-(pyridin-3-yl)propanamide]
- EC50 (Homo sapiens, BEAS-2B, 48 h): 10 to 100 nM

SMILES: CCC1CCN(Cc2nccn2Cc2cc([C@@H](c3ccc4c(nnn4CC)c3C)C(C)(C)C(=O)O)sc2C)CC1 [Example 12, (S)-3-(1-Ethyl-4-methyl-1H-benzo[d][1,2,3]triazol-5-yl)-3-(4-((2-((4-ethylpiperidin-1-yl)methyl)-1H-imidazol-1-yl)methyl)-5-methylthiophen-2-yl)-2,2-dimethylpropanoic acid]
- EC50 (Homo sapiens, BEAS-2B, 48 h): 1 to 10 nM

SMILES: CCn1nnc2c(C)c([C@H](c3cc(CN4CC(C)(C)Oc5ncccc5S4(=O)=O)c(C)s3)C(C)(C)C(=O)O)ccc21 [Example 8, (S)-3-(4-((4,4-Dimethyl-1,1-dioxido-3,4-dihydro-2H-pyrido[2,3-b][1,4,5]oxathiazepin-2-yl)methyl)-5-methylthiophen-2-yl)-3-(1-ethyl-4-methyl-1H-benzo[d][1,2,3]triazol-5-yl)-2,2-dimethylpropanoic Acid]
- EC50 (Homo sapiens, BEAS-2B, 48 h): 1 to 10 nM

SMILES: CC[C@@H]1CN(Cc2cc([C@@H](CC(=O)O)c3ccc4c(nnn4CC)c3C)sc2Cl)S(=O)(=O)c2cccnc2O1 [Example 2, (S)-3-(5-Chloro-4-(((R)-4-ethyl-1,1-dioxido-3,4-dihydro-2H-pyrido[2,3-b][1,4,5]oxathiazepin-2-yl)methyl)thiophen-2-yl)-3-(1-ethyl-4-methyl-1H-benzo[d][1,2,3]triazol-5-yl)propanoic acid]
- EC50 (Homo sapiens, BEAS-2B, 48 h): 1000 to 10000 nM

SMILES: CCn1nnc2c(F)c([C@H](c3cc(CN4C[C@@H](C)Cc5ccc(C(F)(F)F)cc5S4(=O)=O)c(Cl)s3)C(C)(C)C(=O)O)ccc21 [Example 57, (R)-3-(5-Chloro-4-(((S)-4-methyl-1,1-dioxido-8-(trifluoromethyl)-4,5-dihydrobenzo[f][1,2]thiazepin-2(3H)-yl)methyl)thiophen-2-yl)-3-(1-ethyl-4-fluoro-1H-benzo[d][1,2,3]triazol-5-yl)-2,2-dimethylpropanoic Acid]
- EC50 (Homo sapiens, BEAS-2B, 48 h): < 1 nM

SMILES: CC[C@@H]1CN(Cc2cc([C@H](c3ccc4c(nnn4CC)c3C)C(C)(C)C(=O)O)sc2Cl)S(=O)(=O)c2ccccc2O1 [Example 4, (R)-3-(5-Chloro-4-(((R)-4-ethyl-1,1-dioxido-3,4-dihydro-2H-benzo[b][1,4,5]oxathiazepin-2-yl)methyl)thiophen-2-yl)-3-(1-ethyl-4-methyl-1H-benzo[d][1,2,3]triazol-5-yl)-2,2-dimethylpropanoic acid]
- EC50 (Homo sapiens, BEAS-2B, 48 h): 100 to 1000 nM

SMILES: CC[C@@H]1CN(Cc2cc([C@@H](c3ccc4c(nnn4CC)c3F)C(C)(C)C(=O)O)sc2Cl)S(=O)(=O)c2ccccc2O1 [Example 53, (R)-3-(5-Chloro-4-(((R)-4-ethyl-1,1-dioxido-3,4-dihydro-2H-benzo[b][1,4,5]oxathiazepin-2-yl)methyl)thiophen-2-yl)-3-(1-ethyl-4-fluoro-1H-benzo[d][1,2,3]triazol-5-yl)-2,2-dimethylpropanoic Acid]
- EC50 (Homo sapiens, BEAS-2B, 48 h): < 1 nM

SMILES: CC[C@@H]1CN(Cc2cc([C@H](CC(=O)O)c3ccc4c(nnn4CC)c3C)sc2Cl)S(=O)(=O)c2cccnc2O1 [Example 6, (R)-3-(5-Chloro-4-(((R)-4-ethyl-1,1-dioxido-3,4-dihydro-2H-pyrido[2,3-b][1,4,5]oxathiazepin-2-yl)methyl)thiophen-2-yl)-3-(1-ethyl-4-methyl-1H-benzo[d][1,2,3]triazol-5-yl)propanoic acid]
- EC50 (Homo sapiens, BEAS-2B, 48 h): 10 to 100 nM

SMILES: CC[C@@H]1CN(Cc2cc([C@H](CC(=O)O)c3ccc4c(nnn4CC)c3C)sc2Cl)S(=O)(=O)c2cnccc2O1 [Example 22, (R)-3-(5-chloro-4-(((R)-4-ethyl-1,1-dioxido-3,4-dihydro-2H-pyrido[4,3-b][1,4,5]oxathiazepin-2-yl)methyl)thiophen-2-yl)-3-(1-ethyl-4-methyl-1H-benzo[d][1,2,3]triazol-5-yl)propanoic Acid]
- EC50 (Homo sapiens, BEAS-2B, 48 h): 10 to 100 nM

SMILES: CC[C@@H]1CN(Cc2cc([C@H](CC(=O)O)c3ccc4c(nnn4CC)c3C)sc2Cl)S(=O)(=O)c2ccccc2O1 [Example 5, (R)-3-(5-Chloro-4-(((R)-4-ethyl-1,1-dioxido-3,4-dihydro-2H-benzo[b][1,4,5]oxathiazepin-2-yl)methyl)thiophen-2-yl)-3-(1-ethyl-4-methyl-1H-benzo[d][1,2,3]triazol-5-yl)propanoic acid]
- EC50 (Homo sapiens, BEAS-2B, 48 h): 10 to 100 nM

SMILES: CC[C@@H]1CN(Cc2cc([C@H](c3ccc4c(nnn4CC)c3C)C(C)(C)C(=O)O)sc2Cl)S(=O)(=O)c2cnccc2O1 [Example 36, (R)-3-(5-Chloro-4-(((R)-4-ethyl-1,1-dioxido-3,4-dihydro-2H-pyrido[4,3-b][1,4,5]oxathiazepin-2-yl)methyl)thiophen-2-yl)-3-(1-ethyl-4-methyl-1H-benzo[d][1,2,3]triazol-5-yl)-2,2-dimethylpropanoic Acid]
- EC50 (Homo sapiens, BEAS-2B, 48 h): 100 to 1000 nM

SMILES: CC[C@@H]1CN(Cc2cc([C@H](c3ccc4c(nnn4CC)c3F)C(C)(C)C(=O)O)sc2Cl)S(=O)(=O)c2ccccc2O1 [Example 40, (S)-3-(5-Chloro-4-(((R)-4-ethyl-1,1-dioxido-3,4-dihydro-2H-benzo[b][1,4,5]oxathiazepin-2-yl)methyl)thiophen-2-yl)-3-(1-ethyl-4-fluoro-1H-benzo[d][1,2,3]triazol-5-yl)-2,2-dimethylpropanoic Acid]
- EC50 (Homo sapiens, BEAS-2B, 48 h): 10 to 100 nM

SMILES: CC[C@@H]1CN(Cc2cc([C@H](CCc3cn(CC)nn3)C(C)(C)C(=O)O)sc2C)S(=O)(=O)c2ccccc2O1 [Example 64, (R)-3-(4-(((R)-4-Ethyl-1,1-dioxido-3,4-dihydro-2H-benzo[b][1,4,5]oxathiazepin-2-yl)methyl)-5-methylthiophen-2-yl)-5-(1-ethyl-1H-1,2,3-triazol-4-yl)-2,2-dimethylpentanoic Acid]
- EC50 (Homo sapiens, BEAS-2B, 48 h): < 1 nM

SMILES: CC[C@@H]1CN(Cc2nc([C@@H](c3ccc4c(nnn4CC)c3C)C(C)(C)C(=O)O)sc2C)S(=O)(=O)c2cccnc2O1 [Example 26, (S)-3-(4-(((R)-4-Ethyl-1,1-dioxido-3,4-dihydro-2H-pyrido[2,3-b][1,4,5]oxathiazepin-2-yl)methyl)-5-methylthiazol-2-yl)-3-(1-ethyl-4-methyl-1H-benzo[d][1,2,3]triazol-5-yl)-2,2-dimethylpropanoic Acid]
- EC50 (Homo sapiens, BEAS-2B, 48 h): 1 to 10 nM

SMILES: CC[C@@H]1CN(Cc2cc(C(CC(=O)O)c3ccc4c(nnn4CC)c3C)sc2C)S(=O)(=O)c2ccccc2O1 (single isomer, unassigned; isomer 2) [Example 21, (R or S)-3-(4-(((R)-4-Ethyl-1,1-dioxido-3,4-dihydro-2H-benzo[b][1,4,5]oxathiazepin-2-yl)methyl)-5-methylthiophen-2-yl)-3-(1-ethyl-4-methyl-1H-benzo[d][1,2,3]triazol-5-yl)propanoic Acid Isomer 2]
- EC50: 100 to 1000 nM

SMILES: CC[C@@H]1CN(Cc2cc([C@@H](CCc3cn(CC)nn3)C(C)(C)C(=O)O)sc2C)S(=O)(=O)c2ccccc2O1 [Example 63, (S)-3-(4-(((R)-4-Ethyl-1,1-dioxido-3,4-dihydro-2H-benzo[b][1,4,5]oxathiazepin-2-yl)methyl)-5-methylthiophen-2-yl)-5-(1-ethyl-1H-1,2,3-triazol-4-yl)-2,2-dimethylpentanoic Acid]
- EC50 (Homo sapiens, BEAS-2B, 48 h): 1 to 10 nM

From US11117905B2, “Bisaryl heterocycles as NRF2 activators” (GLAXOSMITHKLINE INTELLECTUAL PROPERTY DEVELOPMENT LIMITED, priority 2016, dated 2021)
